Structures are written as SMILES. Where “and” joins values, the source holds several entries; their conditions need not be identical. Equal values may be shown once. Toxic doses and inconclusive results are not listed.

The test system of the assay is CD2F1 mice, L1210 leukemia ip, survival T/C. Description: NCI In Vivo Anticancer Drug Screen. Data for tumor model L1210 Leukemia (intraperitoneal) in CD2F1 (CDF1) mice. Conditions: endpoint: mean survival time, higher = longer survival. In short, it runs like this: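 Activity against a transplanted murine tumor was judged by comparing the compound group with a vehicle group. The outcome in the treated animals was divided by that in the controls.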

Setting [1] is: dose: 50.0 mg/kg/injection, schedule: Q01DX009 (ip), vehicle: saline with Tween-80.
Setting [2] is: dose: 100.0 mg/kg/injection, schedule: Q01DX001 (ip), vehicle: saline with Tween-80.
The mark [3] stands for this setting: dose: 100.0 mg/kg/injection, schedule: Q01DX009 (ip), vehicle: saline with Tween-80.
Where [4] appears, read: dose: 200.0 mg/kg/injection, schedule: Q01DX001 (ip), vehicle: saline with Tween-80.
[5] abbreviates: dose: 200.0 mg/kg/injection, schedule: Q01DX009 (ip), vehicle: saline with Tween-80.
Setting [6] is: dose: 400.0 mg/kg/injection, schedule: Q01DX001 (ip), vehicle: saline with Tween-80.
The mark [7] stands for this setting: dose: 100.0 mg/kg/injection, schedule: Q04DX003 (ip), vehicle: saline with Tween-80.
[8] abbreviates: dose: 200.0 mg/kg/injection, schedule: Q04DX003 (ip), vehicle: saline with Tween-80.
Where [9] appears, read: dose: 400.0 mg/kg/injection, schedule: Q04DX003 (ip), vehicle: saline with Tween-80.
[10] abbreviates: dose: 12.5 mg/kg/injection, schedule: Q04DX003 (ip), vehicle: saline.
Setting [11] is: dose: 25.0 mg/kg/injection, schedule: Q01DX009 (ip), vehicle: saline.
Where [12] appears, read: dose: 25.0 mg/kg/injection, schedule: Q04DX003 (ip), vehicle: saline.
[13] abbreviates: dose: 50.0 mg/kg/injection, schedule: Q01DX009 (ip), vehicle: saline.
[14] abbreviates: dose: 50.0 mg/kg/injection, schedule: Q04DX003 (ip), vehicle: saline.
[15] abbreviates: dose: 50.0 mg/kg/injection, schedule: Q01DX009 (ip), vehicle: other.
Setting [16] is: dose: 100.0 mg/kg/injection, schedule: Q04DX003 (ip), vehicle: Klucel (hydroxypropylcellulose) (HPC).
Setting [17] is: dose: 200.0 mg/kg/injection, schedule: Q04DX003 (ip), vehicle: Klucel (hydroxypropylcellulose) (HPC).
[18] abbreviates: dose: 400.0 mg/kg/injection, schedule: Q04DX003 (ip), vehicle: Klucel (hydroxypropylcellulose) (HPC).

`CS(=O)(=O)OCCN(CCOS(C)(=O)=O)c1ccc(C=Nc2ccc(-c3csc(COc4ccccc4)n3)cc2)cc1`: the T/C (dose: 12.5 mg/kg/injection, schedule: Q01DX009 (ip), vehicle: Klucel (hydroxypropylcellulose) (HPC)) was 119 % of control; the T/C (dose: 25.0 mg/kg/injection, schedule: Q01DX009 (ip), vehicle: Klucel (hydroxypropylcellulose) (HPC)) is 110 % of control; the T/C (dose: 50.0 mg/kg/injection, schedule: Q01DX009 (ip), vehicle: Klucel (hydroxypropylcellulose) (HPC)) is 112 % of control; the T/C (dose: 100.0 mg/kg/injection, schedule: Q01DX009 (ip), vehicle: Klucel (hydroxypropylcellulose) (HPC)) was 115 % of control; the T/C (dose: 200.0 mg/kg/injection, schedule: Q01DX009 (ip), vehicle: Klucel (hydroxypropylcellulose) (HPC)) is 120 % of control; the T/C (dose: 400.0 mg/kg/injection, schedule: Q01DX008 (ip), vehicle: Klucel (hydroxypropylcellulose) (HPC)) is 150 % of control. Further, the T/C (dose: 400.0 mg/kg/injection, schedule: Q01DX009 (ip), vehicle: Klucel (hydroxypropylcellulose) (HPC)) is 106 % of control and 107 % of control.

`CCCCN(CCCC)C(=S)Nc1ccccc1`: the T/C runs as follows: under setting [1], 96 % of control; under setting [2], 107 % of control; under setting [3], 96 % of control; under setting [4], 102 % of control; under setting [5], 86 % of control; under setting [6], 96 % of control.

For the compound `CCCN(CCC)CC(=O)c1ccc2cc(Br)c3ccccc3c2c1`, the T/C was 92 % of control (dose: 100.0 mg/kg/injection, schedule: Q04DX003 (ip), vehicle: saline); 91 % of control (dose: 200.0 mg/kg/injection, schedule: Q04DX003 (ip), vehicle: saline); 89 % of control (dose: 400.0 mg/kg/injection, schedule: Q04DX003 (ip), vehicle: saline).

Turning to `CCC[CH2][Sn]1([CH2]CCC)[O]OC(C)(CC)[O]1` (configuration not stated), the T/C reads like this: (dose: 0.78 mg/kg/injection, schedule: Q01DX009 (ip), vehicle: saline with Tween-80) 95 % of control; (dose: 1.56 mg/kg/injection, schedule: Q01DX009 (ip), vehicle: saline with Tween-80) 110 % of control; (dose: 3.13 mg/kg/injection, schedule: Q01DX009 (ip), vehicle: saline with Tween-80) 112 % of control.

With `Nc1ncnc2c1ncn2CCNC(=S)Nc1ccccc1`, the T/C was 88 % of control (dose: 6.25 mg/kg/injection, schedule: Q01DX005 (ip), vehicle: other); 92 % of control (dose: 12.5 mg/kg/injection, schedule: Q01DX005 (ip), vehicle: other); 88 % of control (dose: 25.0 mg/kg/injection, schedule: Q01DX005 (ip), vehicle: other); 92 % of control (dose: 50.0 mg/kg/injection, schedule: Q01DX005 (ip), vehicle: other); 92 % of control (dose: 100.0 mg/kg/injection, schedule: Q01DX005 (ip), vehicle: other).

With `CC(=O)Nc1nnc(SCc2ccccc2)s1`, the T/C reads like this: under setting [3], 100 % of control; under setting [7], 92 % of control; under setting [5], 96 % of control; under setting [8], 89 % of control; (dose: 400.0 mg/kg/injection, schedule: Q01DX009 (ip), vehicle: saline with Tween-80) 100 % of control; under setting [9], 89 % of control.

`O=C1CC=C2C3CC4N(CCC45c4cc(O)c(O)cc4N1C25)C/C3=C\CBr` (configuration not stated): the T/C (dose: 75.0 mg/kg/injection, schedule: Q01DX001 (ip), vehicle: saline) is 115 % of control.

Consider `Cc1nnnn1C12CC3CC(CC(C3)C1)C2`, for which the T/C (dose: 9.4 mg/kg/injection, schedule: Q01DX009 (ip), vehicle: saline with Tween-80) is 94 % of control.

`OC(C/C(=N\Nc1ccccc1)c1ccc(Br)cc1)(C(F)(F)F)C(F)(F)F`: the T/C was 96 % of control under setting [2], 95 % of control under setting [4] and 97 % of control under setting [6].

On to `c1ccc2c(CC[n+]3cccc(C4OCCO4)c3)c[nH]c2c1`, for which the T/C (dose: 12.5 mg/kg/injection, schedule: Q01DX009 (ip), vehicle: saline) is 100 % of control; the T/C under setting [10] is 92 % of control; the T/C under setting [11] is 105 % of control; the T/C under setting [12] is 96 % of control; the T/C under setting [13] is 100 % of control; the T/C under setting [14] was 89 % of control.

`O=CNc1cc2ccccc2c2ccc3ccccc3c12`: the T/C under setting [1] is 94 % of control; the T/C under setting [3] is 94 % of control; the T/C under setting [7] was 89 % of control; the T/C under setting [5] was 97 % of control; the T/C under setting [8] was 89 % of control.

Take `O=S(=O)(Nc1ccc(O)c(Cl)c1)c1ccccc1`: the T/C reads like this: under setting [7], 98 % of control; under setting [8], 97 % of control; under setting [9], 110 % of control.

With `NCCS[As](=O)(O)SCCN`, the T/C reads like this: (dose: 12.5 mg/kg/injection, schedule: Q01DX009 (ip), vehicle: saline with Tween-80) 97 % of control; under setting [10], 101 % of control; (dose: 25.0 mg/kg/injection, schedule: Q01DX009 (ip), vehicle: saline with Tween-80) 103 % of control; under setting [12], 98 % of control; under setting [1], 94 % of control; under setting [14], 101 % of control.

Consider `Cc1ccc(S(=O)(=O)NC(=O)OCCc2c3ccccc3nc3ccccc23)cc1`, for which the T/C was 97 % of control (dose: 100.0 mg/kg/injection, schedule: Q04DX002 (ip), vehicle: other); 97 % of control (dose: 100.0 mg/kg/injection, schedule: Q04DX002 (ip), vehicle: saline with Tween-80); 97 % of control (dose: 200.0 mg/kg/injection, schedule: Q04DX002 (ip), vehicle: other); 109 % of control (dose: 200.0 mg/kg/injection, schedule: Q04DX002 (ip), vehicle: saline with Tween-80).

`COc1ccc2nc3cc(Cl)ccc3c(Nc3cccc(NC(C)=O)c3)c2n1`: the T/C is, setting by setting: (dose: 25.0 mg/kg/injection, schedule: Q01DX009 (ip), vehicle: other) 102 % of control; under setting [15], 96 % of control; (dose: 100.0 mg/kg/injection, schedule: Q01DX009 (ip), vehicle: other) 86 % of control.

As to `CC1CC(C(=O)O)C(S(N)(=O)=O)C1` (configuration not stated), the T/C (dose: 50.0 mg/kg/injection, schedule: Q04DX002 (ip), vehicle: saline) is 97 % of control; the T/C (dose: 100.0 mg/kg/injection, schedule: Q04DX002 (ip), vehicle: saline) was 108 % of control; the T/C (dose: 200.0 mg/kg/injection, schedule: Q04DX002 (ip), vehicle: saline) was 108 % of control.

On to `CCCCOC(=O)c1ccc(Cl)c(Cl)c1`, for which the T/C is, setting by setting: under setting [16], 92 % of control; under setting [17], 96 % of control; under setting [18], 103 % of control.

Regarding `CCCC(=O)C(CC)C(O)(C(F)(F)F)C(F)(F)F` (configuration not stated), the T/C runs as follows: under setting [16], 95 % of control; under setting [17], 108 % of control; under setting [18], 86 % of control.

For `CC(C)[NH-].CC(C)[NH-].[Cl][Pt+2][Cl]`, the T/C is 119 % of control (dose: 1.56 mg/kg/injection, schedule: Q01DX009 (ip), vehicle: dextrose); 112 % of control (dose: 1.56 mg/kg/injection, schedule: Q01DX009 (ip), vehicle: other); 118 % of control (dose: 3.12 mg/kg/injection, schedule: Q01DX009 (ip), vehicle: other); 112 % of control (dose: 3.13 mg/kg/injection, schedule: Q04DX003 (ip), vehicle: distilled water + Tween-80); 100 % of control (dose: 6.25 mg/kg/injection, schedule: Q01DX009 (ip), vehicle: dextrose); 115 % of control (dose: 6.25 mg/kg/injection, schedule: Q04DX003 (ip), vehicle: distilled water + Tween-80). Also, the T/C was 98 % of control and 112 % of control (dose: 12.5 mg/kg/injection, schedule: Q01DX009 (ip), vehicle: dextrose); 88 % of control under setting [15]; 118 % of control (dose: 50.0 mg/kg/injection, schedule: Q04DX003 (ip), vehicle: distilled water + Tween-80).

`Cc1ccc(S(=O)(=O)NCl)cc1`: the T/C under setting [11] was 89 % of control and the T/C under setting [13] is 94 % of control.
